Laboratory results reported in patent publication US8691753B2 (priority 2009, dated 2014).
Where two headings read alike, the source gives them in different places.

Legend:
MMP-2h = MMP-2h (Homo sapiens (Human), UniProt P08253); test: Inhibition constant (Ki) on MMP-2h; format: biochemical; details: read-out: Ki MMP-2h; human MMP-2
Outline: (§1)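 Ki values were determined against the human enzymes using a previously published inhibition protocol.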

MMP-3h = MMP-3h (Homo sapiens (Human), UniProt P08254); test: Inhibition constant (Ki) on MMP-3h; format: biochemical; details: read-out: Ki MMP-3h; human MMP-3
Outline: as §1

MMP-8h = MMP-8h (Homo sapiens (Human), UniProt P22894); test: Inhibition constant (Ki) on MMP-8h; format: biochemical; details: read-out: Ki MMP-8h; human MMP-8
MMP-9h = MMP-9h (Homo sapiens (Human), UniProt P14780); test: Inhibition constant (Ki) on MMP-9h; format: biochemical; details: read-out: Ki MMP-9h; human MMP-9
Outline: as §1

MMP-10h = MMP-10h (Homo sapiens (Human), UniProt P09238); test: Inhibition constant (Ki) on MMP-10h; format: biochemical; details: read-out: Ki MMP-10h; human MMP-10
MMP-12h [1] = molecular target: T1, MMP-12h (Homo sapiens (Human), UniProt P39900); test: Inhibition constant (Ki) on MMP-12h; format: biochemical; details: read-out: Ki MMP-12h; human MMP-12
MMP-13h = MMP-13h (Homo sapiens (Human), UniProt P45452); test: Inhibition constant (Ki) on MMP-13h; format: biochemical; details: read-out: Ki MMP-13h; human MMP-13
Outline: as §1

MMP-14h = MMP-14h (Homo sapiens (Human), UniProt P50281); test: Inhibition constant (Ki) on MMP-14h; format: biochemical; details: read-out: Ki MMP-14h; human MMP-14
Outline: as §1

[2] = Determination of the plasma concentration in mice after infusion; details: mouse, intravenous, 10 mg/kg
MMP-12h [3] = molecular target: T1, MMP-12h; details: reported by Devel et al., J. Biol. Chem. 2006; read-out: inhibition constant Ki for human MMP-12; cited from earlier work
human MMPs = details: reported by Devel et al., J. Biol. Chem. 2006; cited from earlier work

T1 sequence (P39900 106-470): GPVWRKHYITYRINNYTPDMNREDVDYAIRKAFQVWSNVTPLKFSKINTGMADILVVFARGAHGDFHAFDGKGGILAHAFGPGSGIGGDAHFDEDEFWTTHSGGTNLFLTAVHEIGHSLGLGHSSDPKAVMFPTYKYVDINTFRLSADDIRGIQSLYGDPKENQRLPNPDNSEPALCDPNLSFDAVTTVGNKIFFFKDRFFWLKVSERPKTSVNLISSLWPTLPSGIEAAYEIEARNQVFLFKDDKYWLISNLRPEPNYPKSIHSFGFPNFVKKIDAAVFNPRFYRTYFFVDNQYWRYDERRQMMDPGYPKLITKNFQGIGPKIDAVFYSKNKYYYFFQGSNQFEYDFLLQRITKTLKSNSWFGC
Sequence of MMP-3h (P08254 100-477): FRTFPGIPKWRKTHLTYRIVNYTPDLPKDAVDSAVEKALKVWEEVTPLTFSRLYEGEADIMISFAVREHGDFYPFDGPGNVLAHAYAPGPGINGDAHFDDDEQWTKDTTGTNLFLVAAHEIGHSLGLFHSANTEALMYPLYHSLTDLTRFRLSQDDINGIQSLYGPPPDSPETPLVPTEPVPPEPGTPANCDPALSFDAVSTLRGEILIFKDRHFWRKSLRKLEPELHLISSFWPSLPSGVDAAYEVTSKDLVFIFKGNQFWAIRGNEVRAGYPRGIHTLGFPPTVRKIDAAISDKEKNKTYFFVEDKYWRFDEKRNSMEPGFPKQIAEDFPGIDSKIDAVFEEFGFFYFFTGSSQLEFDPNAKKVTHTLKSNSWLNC
Sequence of MMP-9h (P14780 94-707): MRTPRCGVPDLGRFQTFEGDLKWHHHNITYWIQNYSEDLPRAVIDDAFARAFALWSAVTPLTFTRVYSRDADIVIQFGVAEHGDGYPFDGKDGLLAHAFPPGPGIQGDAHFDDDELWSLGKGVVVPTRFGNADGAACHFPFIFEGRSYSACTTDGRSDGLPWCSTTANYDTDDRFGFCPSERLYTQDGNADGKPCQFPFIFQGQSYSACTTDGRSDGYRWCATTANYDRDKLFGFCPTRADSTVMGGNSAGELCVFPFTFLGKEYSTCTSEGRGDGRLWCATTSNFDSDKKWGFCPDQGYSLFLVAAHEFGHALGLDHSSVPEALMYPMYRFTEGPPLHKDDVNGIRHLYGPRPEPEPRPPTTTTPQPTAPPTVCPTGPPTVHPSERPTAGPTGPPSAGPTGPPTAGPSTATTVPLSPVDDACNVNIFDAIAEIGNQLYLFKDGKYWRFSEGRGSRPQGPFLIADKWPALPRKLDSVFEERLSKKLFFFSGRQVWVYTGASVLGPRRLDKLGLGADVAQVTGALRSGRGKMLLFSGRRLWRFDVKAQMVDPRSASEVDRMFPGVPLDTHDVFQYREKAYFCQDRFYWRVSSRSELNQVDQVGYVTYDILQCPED
Sequence of MMP-10h (P09238 99-476): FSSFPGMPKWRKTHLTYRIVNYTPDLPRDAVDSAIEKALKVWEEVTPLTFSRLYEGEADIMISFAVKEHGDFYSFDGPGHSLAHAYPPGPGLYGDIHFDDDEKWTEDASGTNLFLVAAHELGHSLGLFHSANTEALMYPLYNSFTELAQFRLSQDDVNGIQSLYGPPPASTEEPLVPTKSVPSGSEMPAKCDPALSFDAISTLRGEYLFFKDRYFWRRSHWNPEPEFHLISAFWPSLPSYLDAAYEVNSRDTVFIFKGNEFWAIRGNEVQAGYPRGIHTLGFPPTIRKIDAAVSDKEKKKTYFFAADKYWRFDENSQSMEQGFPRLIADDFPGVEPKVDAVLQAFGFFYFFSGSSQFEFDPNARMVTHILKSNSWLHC
Sequence of MMP-2h (P08253 110-660): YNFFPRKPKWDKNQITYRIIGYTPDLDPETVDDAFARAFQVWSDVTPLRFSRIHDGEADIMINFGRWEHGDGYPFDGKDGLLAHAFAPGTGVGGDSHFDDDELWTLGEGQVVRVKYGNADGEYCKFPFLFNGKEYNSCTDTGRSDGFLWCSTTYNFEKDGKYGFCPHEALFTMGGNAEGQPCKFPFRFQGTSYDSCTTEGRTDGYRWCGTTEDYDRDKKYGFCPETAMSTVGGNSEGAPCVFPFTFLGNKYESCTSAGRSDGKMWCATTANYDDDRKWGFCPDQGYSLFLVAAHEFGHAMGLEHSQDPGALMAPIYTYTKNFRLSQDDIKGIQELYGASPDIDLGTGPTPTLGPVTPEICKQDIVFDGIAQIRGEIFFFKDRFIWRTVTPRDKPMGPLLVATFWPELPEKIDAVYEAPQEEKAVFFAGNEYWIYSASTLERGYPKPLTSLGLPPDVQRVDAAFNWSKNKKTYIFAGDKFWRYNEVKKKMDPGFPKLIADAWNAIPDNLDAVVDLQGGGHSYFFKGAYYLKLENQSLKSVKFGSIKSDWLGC
Sequence of MMP-8h (P22894 101-467): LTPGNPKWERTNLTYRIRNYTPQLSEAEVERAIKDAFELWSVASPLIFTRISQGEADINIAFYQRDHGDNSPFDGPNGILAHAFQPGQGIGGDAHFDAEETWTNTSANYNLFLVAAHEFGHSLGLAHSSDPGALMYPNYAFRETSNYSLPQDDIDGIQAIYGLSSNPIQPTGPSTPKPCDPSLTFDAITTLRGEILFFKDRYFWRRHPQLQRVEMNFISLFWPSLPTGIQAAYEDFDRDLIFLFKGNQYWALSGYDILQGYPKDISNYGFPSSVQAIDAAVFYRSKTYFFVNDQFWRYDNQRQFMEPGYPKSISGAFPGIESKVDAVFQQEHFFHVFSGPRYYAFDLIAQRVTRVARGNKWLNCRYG

SMILES | Ki (MMP-2h) [nM] | Ki (MMP-3h) [nM] | Ki (MMP-8h) [nM] | Ki (MMP-9h) [nM] | Ki (MMP-10h) [nM] | Ki (MMP-12h [1]) [nM] | Ki (MMP-13h) [nM] | Ki (MMP-14h) [nM] | concentration at 5 min [2] [nM] | Ki (MMP-12h [3]) [nM] | potency toward MMPs 1, 2, 3, 7, 8, 9, 11, 13 and 14 compared with MMP-12 (human MMPs)
Cc1ccc(-c2ccc(CCC(=O)N[C@@H](CCC(=O)O)C(=O)N[C@@H](CCC(=O)O)C(N)=O)cc2)s1 [Compound 91, (S)-5-amino-4-((S)-4-carboxy-2-(3-(4-(5-methylthiophen-2-yl)phenyl)propanamido)butanamido)-5-oxopentanoic acid] | 97 | > 1000 | 10.3 | 242 | 353 | 1.84 | 564 | > 1000 | 1000 | – | –
NC(=O)[C@H](CCC(=O)O)NC(=O)[C@H](CCC(=O)O)NC(=O)[C@H](Cc1cc(-c2ccc(-c3cccc(Cl)c3)cc2)no1)CP(=O)(O)c1ccc(Br)cc1 [RXP470, reference compound] | 72 | 58 | 77 | 850 | 8.3 | 0.2 | 13 | 80 | – | 0.4 | two to three orders of magnitude less powerful
